Data: patent publication US9623021B2, “Nuclear receptor binding agents” (GTX, Inc., priority 2007, dated 2017)
“Also recorded” adds a separate entry of the source.

Assays:
ARPE-19 cells = assay: Fluorescent detection of intracellular ROS in ARPE-19 cells (tBH oxidative stress); conditions: 150 μM tBH, FIG. 20B
ER-α = ER-α (Rattus norvegicus (Rat), UniProt P06211); assay type: cell-based; conditions: 100 nM NRBA compared to 1 nM estradiol
Method in brief: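 COS or 293 cells in phenol red-free medium with charcoal-stripped FBS, transfected with a 2×ERE firefly luciferase reporter, CMV-Renilla control and rat-cloned receptor. Compounds, estrogen or DHT added 24 h post transfection, alone or combined; firefly and Renilla luciferase read 48 h after transfection.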

SHP promoter = assay: SHP promoter-luciferase in HEK-293 cells transfected with FXR and ER-β; assay type: cell-based; conditions: FXR and ER-β plasmids, FIG. 12E right panel
Method: FIG. 12 depict the effect of ER-β ligand on PPAR-γ function through ligand binding domain (LBD). (A). HEK-293 cells were transfected with 0.25 μg PPRE-LUC, 5 ng CMV-renilla LUC and the indicated receptors (PPAR-γ and ER-β for the left panel and PPAR-α and ER-β for the right panel). The cells were treated 24 hrs after transfection with the indicated ligands and harvested 48 hrs after transfection and firefly luciferase activity was measured and normalized to renilla luciferase. (B). H475 in ER-β LBD is important for its function. H475 in ER-β LBD was mutated to alanine (A) using a site directed mutagenesis kit. Transactivation assay was performed as described in panel A in HEK-293 cells with a titration of ER-β ligands in wild type or ER-β H475A. (C). […] HEK-293 cells were transfected with 0.25 μg PPRE-LUC, 5 ng CMV-renilla LUC and 50 ng of the indicated receptors (PPAR-γ or PPAR-γ and wild type ER-β or PPAR-γ and ER-β H475A). The cells were treated 24 hrs after transfection with the indicated ligands and harvested 48 hrs after transfection and firefly luciferase activity was measured and normalized to renilla luciferase. (D). […] HepG2 cells were transfected with 0.25 μg PPRE-LUC, 5 ng CMV-renilla LUC, 0.5 μg PGC-1 or vector backbone and 100 ng of the indicated receptors (PPAR-γ or PPAR-γ and wild type ER-β or PPAR-γ and ER-β H475A for top panels and PPAR-α or PPAR-α and ER-β for bottom panel). The cells were treated 24 hrs after transfection with the indicated ligands and harvested 48 hrs after transfection and firefly luciferase activity was measured and normalized to renilla luciferase. (E). SHP-1 is an ER-β specific target gene. HEK-293 cells were transfected with 0.25 μg SHP-LUC, 5 ng CMV-renilla LUC and 50 ng of the indicated receptors (FXR and ER-α for the left panel and FXR and ER-β for the right panel). The cells were treated 24 hrs after transfection with the indicated ligands and harvested 48 hrs after transfection and firefly luciferase activity was measured and normalized to renilla luciferase. […]

[1] = system: Ishikawa endometrial cells; assay: Ishikawa growth assay (alkaline phosphatase); assay type: cell-based
Method: Ishikawa cells were plated at 15,000 cells/well in 24 well plates in DME:F12 (1:1)+5% csFBS w/o phenol red. The cells were maintained in this medium at 37° C. for 3 days. Medium was changed immediately prior to drug treatment for an additional 72 hrs. After 72 hrs, the cells were fixed with formalin and the amount of alkaline phosphatase (ALP) measured by para-nitrophenyl phosphate method.
This effect is one potential concern in the development of ER-α SERMs.

C-26 colon cancer cells = assay: C-26 colon cancer cell proliferation (3H thymidine incorporation); assay type: cell-based; conditions: treated for 3 days, FIG. 22
Method: The effects of treatment of an ER-β selective NRBA of this invention on cancer cell proliferation was examined using LNCaP prostate cancer cells and C-26 colon cancer cells. LNCaP or C-26 cells were plated in growth medium in 24 well and 6 well plates, respectively. LNCaP cells were treated for 6 days and C-26 cells were treated for 3 days at the indicated concentration. ^3H thymidine incorporation was measured at the end of treatment as an indicator of cell proliferation.

[2] = system: high fat diet fed C57BL6 mice; assay: High fat diet induced obesity model, prevention studies (studies 1 and 2)
Method: Study A: C57BL6 male mice of 4 weeks of age were divided into different groups and were fed with a normal or high fat diet (Harlan, Ind.).
For the treatment study (study 3), the animals were maintained on the irrespective diets for 6 weeks and then treated daily as indicated for an additional 18 weeks. Biweekly body weights and food consumption were measured. The animals were sacrificed at the end of each study and blood and tissues were collected for RNA isolation, histology and protein estimation.
Cholesterol and leptin concentrations were measured in serum using ELISA-based methods.
Histology was performed on cryosections and stained with oil 0 red.
Oral glucose tolerance tests (OGTT) were performed on 16-h fasted mice. Mice were given 150 mg glucose by oral gavage through a gastric tube.
Six week old C57BL/6 mice were randomized, based on body weight, into three study groups as shown in the Study Parameters Table below.
The mice were treated for 12 weeks. Twice weekly, the body weight and feed consumption were measured.
A glucose tolerance test was also performed at the completion of the study by administering 150 mg glucose orally to the mice and measuring blood glucose levels at 0, 15, 30 and 60 minutes post glucose administration.
At sacrifice, the mice organ weights were measured and collected for histology, gene expression and protein expressions. Blood was collected for serum marker determination (cholesterol, glucose, leptin).
Dual energy X-ray absorptiometry (DEXA) was performed to measure the body composition in Study 1.
An MRI scan was performed at the beginning of the study, after 6 weeks and at the completion of the study.

[3] = system: THP-1 macrophage cell adhesion to bEND-3 endothelial cells; assay: Macrophage adhesion assay (LPS induced THP-1 adhesion to bEND-3 endothelial cells); assay type: cell-based; conditions: FIG. 13
Method: To determine the anti-inflammatory effects of ER-β NRBAs in vitro, a macrophage adhesion assay was performed. Macrophages adhere to endothelial cells due to elevated levels of pro-inflammatory cytokines. This principle was used in this assay to determine the effect of one of the ER-β NRBAs on bacterial lipopolysaccharide (LPS) induced THP-1 macrophage cell adhesion to bEND-3 endothelial cells.

[4] = high fat diet, 30 mg/kg/day s.c., 12 weeks, FIG. 7
[5] = high fat diet, 30 mg/kg/day s.c., Study 2

What does the source list for `O=c1c2c(O)cc(O)cc2c(Br)cn1-c1ccc(O)cc1` [Compound 12u, 4-bromo-6,8-dihydroxy-2-(4-hydroxyphenyl)isoquinolin-1(2H)-one]?
prevention of ROS formation / oxidative damage (ARPE-19 cells): did not seem to have any effect; Estradiol activity at 100 nM, ER-α (ER-α): 62%; SHP activity (SHP promoter): neither of the ligands activated SHP; Ishikawa cell proliferation ([1]; FIG. 3C): weakly induce; concentration at which proliferation of Ishikawa cells was induced ([1]; highest concentration tested, ALP assay, 72 hrs): 1 µM; growth of C-26 colon cancer cells (C-26 colon cancer cells): significantly inhibited the growth; prevention of body weight increase caused by the high fat diet ([2]; 30 mg/kg/day s.c., 12 weeks, Study 2): more than 50%; gastrocnemius muscle weight [2, 4]: increased gastrocnemius muscle weight; white adipose tissue (WAT) weight [2, 4]: prevented the increase in the WAT weight; also recorded: comparably decreased WAT weight; fat mass (MRI) [2, 5]: reduce fat mass; lean mass (MRI) [2, 5]: increase muscle mass; also recorded: increased the lean mass; prevention of the increase in body fat (MRI) [2, 5]: more than 50%; testes weights ([2]; high fat diet, 12 weeks, FIG. 9A): not altered; serum testosterone levels ([2]; high fat diet, 12 weeks, FIG. 9B): did not affect; also recorded: not altered; serum follicle stimulating hormone (FSH) ([2]; high fat diet, 12 weeks, FIG. 9C): not altered; adhesion of 3H labeled THP-1 cells to bEND-3 cells [3]: significantly inhibited the adhesion
